The target in experiment [1] is T1, TRPM8 (Mus musculus, UniProt Q8R4D5). Nature of the experiment: whole-cell voltage clamp (V1/[…] shift with […] menthol) and Fura-2 calcium imaging ([…]) in mTRPM8-transfected HEK293T cells. The experiment is classed as cell-based.
The target in experiment [2] is T1, TRPM8. Briefly: whole-cell voltage clamp of menthol-evoked currents in mTRPM8-transfected HEK293T cells; also Fura-2 calcium imaging. Type of experiment: cell-based.

T1 sequence (Q8R4D5 whole entry): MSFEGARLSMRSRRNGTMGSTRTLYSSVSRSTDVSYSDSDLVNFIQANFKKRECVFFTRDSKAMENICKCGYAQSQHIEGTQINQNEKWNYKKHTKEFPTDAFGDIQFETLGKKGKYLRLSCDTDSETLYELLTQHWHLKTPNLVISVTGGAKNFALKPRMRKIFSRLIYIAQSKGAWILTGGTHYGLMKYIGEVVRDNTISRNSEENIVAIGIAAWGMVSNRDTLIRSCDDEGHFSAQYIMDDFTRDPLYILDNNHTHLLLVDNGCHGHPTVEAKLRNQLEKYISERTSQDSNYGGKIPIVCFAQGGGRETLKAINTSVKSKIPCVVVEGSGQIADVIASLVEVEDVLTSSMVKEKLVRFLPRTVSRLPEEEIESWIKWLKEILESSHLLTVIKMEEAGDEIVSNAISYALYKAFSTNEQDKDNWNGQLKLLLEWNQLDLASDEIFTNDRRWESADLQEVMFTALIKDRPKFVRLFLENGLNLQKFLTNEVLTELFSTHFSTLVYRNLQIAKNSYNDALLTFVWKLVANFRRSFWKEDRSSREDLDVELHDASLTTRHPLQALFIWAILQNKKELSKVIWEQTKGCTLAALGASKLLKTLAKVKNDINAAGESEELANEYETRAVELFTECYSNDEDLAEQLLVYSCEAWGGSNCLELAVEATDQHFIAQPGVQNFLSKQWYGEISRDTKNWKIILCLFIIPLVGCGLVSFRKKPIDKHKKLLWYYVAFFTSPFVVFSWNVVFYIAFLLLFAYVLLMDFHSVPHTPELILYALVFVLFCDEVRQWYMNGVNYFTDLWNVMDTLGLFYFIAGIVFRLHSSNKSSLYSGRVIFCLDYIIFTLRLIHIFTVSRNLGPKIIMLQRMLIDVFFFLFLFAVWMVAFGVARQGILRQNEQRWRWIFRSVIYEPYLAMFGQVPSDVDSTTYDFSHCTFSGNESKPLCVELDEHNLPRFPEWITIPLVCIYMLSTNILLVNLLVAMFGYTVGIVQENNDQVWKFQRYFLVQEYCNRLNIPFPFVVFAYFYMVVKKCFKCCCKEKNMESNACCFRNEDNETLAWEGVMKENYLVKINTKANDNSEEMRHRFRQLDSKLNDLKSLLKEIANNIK

`CC1CCC(C(C)C)C(O)C1` (centres unmarked) [menthol]: the “V1/2 shift with 1 mM menthol” value on TRPM8 [1] is 79.1±21.1 mV.

A word on the IC50: it is the concentration needed to halve the response being measured. In the case of `COc1cc(CN(CCN)C(=O)OC(C)c2ccccc2)ccc1OCc1ccccc1` (centres unmarked) [PBMC, 1-phenylethyl-4-(benzyloxy)-3-methoxybenzyl(2-aminoethyl)carbamate], the IC50 on TRPM8 [2] was 400 pM.

The values above are taken from PMC3184174, “Pharmacological Blockade of TRPM8 Ion Channels Alters Cold and Cold Pain Responses in Mice” (PLoS ONE, 2011).
